# Values of other authors, collected in patent US20140276034A1, “Apparatus Detection of Circulatory Anomalies” (Cardiox Corporation, priority 2013, published 2014).
# Details: manufacturers specified guideline; cited from earlier work
compound,measurement,value
"CC1(C)C(=CC=CC=CC=CC2=[N+](CCCCS(=O)(=O)[O-])c3ccc4ccccc4c3C2(C)C)N(CCCCS(=O)(=O)[O-])c2ccc3ccccc3c21.[Na+] [ICG, 1H-benz(e)indolium, 2-[7-[1,3-dihydro-1,1-dimethyl-3-(4-sulfobutyl)-2H-benz[e]indo-2-ylidene]-1,3,5-heptatrienyl]-1,1-dimethyl-3-(4-sulfobutyl)-hydroxide, inner salt, sodium]",maximum ICG dose per day,2 milligrams per kilogram of body weight
